Laboratory results reported in ChEMBL document CHEMBL1909605, “Cytotoxic and antivascular 1-methyl-4-(3-fluoro-4-methoxyphenyl)-5-(halophenyl)-imidazoles” (Bioorg Med Chem Lett, 2011).
≈ marks a conversion by molar mass, not a printed value. Each block holds one compound with its values, some of them ahead of it. Calls of active or inactive are those of the source. The calls are words filed in the database; no cut-off is given here.

Columns and labels:
[1] = Growth inhibition of human KB-3-1 cells after 5 days by MTT assay; format: functional, cell-based; details: KB 3-1, 120 h
PtK2 = experiment: Disruption of microtubule network in potoroo PtK2 cells at 10 ug/mL after 16 hrs by immunofluorescence staining method; format: cell-based; details: Potorous tridactylus
[2] = Growth inhibition of rat kangaroo PtK2 cells after 5 days by MTT assay; format: cell-based; details: Potorous tridactylus, PtK2, 120 h
L929 = experiment: Growth inhibition of mouse L929 cells after 5 days by MTT assay; format: cell-based; details: L929, 120 h
NHDF = experiment: Growth inhibition of human NHDF cells after 5 days by MTT assay; format: cell-based; details: 120 h
Tubulin (Sus scrofa) = Tubulin (Sus scrofa) (UniProt P02554+P02550); experiment: Inhibition of pig porcine tubulin polymerization at 25 ug/mL by turbidimetric method; format: protein assay; details: at 25 µg/mL
Sequence of Tubulin (Sus scrofa) (P02550 whole entry, looked up): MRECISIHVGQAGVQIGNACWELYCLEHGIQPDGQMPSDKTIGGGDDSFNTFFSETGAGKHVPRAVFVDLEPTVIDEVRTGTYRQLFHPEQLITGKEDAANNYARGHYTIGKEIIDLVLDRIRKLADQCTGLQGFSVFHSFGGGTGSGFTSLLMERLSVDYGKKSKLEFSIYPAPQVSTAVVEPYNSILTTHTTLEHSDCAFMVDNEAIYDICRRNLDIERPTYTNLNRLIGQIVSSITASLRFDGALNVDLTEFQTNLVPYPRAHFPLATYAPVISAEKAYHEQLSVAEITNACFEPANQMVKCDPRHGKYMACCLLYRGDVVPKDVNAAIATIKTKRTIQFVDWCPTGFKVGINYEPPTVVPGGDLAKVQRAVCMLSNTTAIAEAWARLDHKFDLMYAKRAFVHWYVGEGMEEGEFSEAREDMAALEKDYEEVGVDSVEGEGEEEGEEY
Sequence of Tubulin (Sus scrofa) (P02554 whole entry, looked up): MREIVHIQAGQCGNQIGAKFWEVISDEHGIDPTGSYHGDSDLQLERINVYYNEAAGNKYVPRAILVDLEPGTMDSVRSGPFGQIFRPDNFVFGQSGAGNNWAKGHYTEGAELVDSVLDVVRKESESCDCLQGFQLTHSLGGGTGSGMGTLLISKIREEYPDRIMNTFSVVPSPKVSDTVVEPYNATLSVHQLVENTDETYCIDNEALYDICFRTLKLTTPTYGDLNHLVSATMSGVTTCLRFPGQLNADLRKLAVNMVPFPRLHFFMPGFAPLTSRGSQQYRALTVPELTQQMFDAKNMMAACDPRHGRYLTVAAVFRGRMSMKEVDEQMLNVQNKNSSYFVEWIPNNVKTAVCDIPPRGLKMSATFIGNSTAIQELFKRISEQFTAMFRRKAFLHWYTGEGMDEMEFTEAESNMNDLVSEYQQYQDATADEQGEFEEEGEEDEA

HUVEC = experiment: Antiangiogenic activity against human HUVEC cells assessed as suppression of tube formation after 20 hrs incubation by calcein staining-based fluorescent microscopy; format: functional, cell-based
PC-3 = experiment: Growth inhibition of human PC3 cells after 5 days by MTT assay; format: functional, cell-based; details: PC-3, 120 h

SMILES: COc1ccc(-c2ncn(C)c2-c2cc(I)c(OC)c(OC)c2)cc1F
IC50 [1]: 90 nM
Activity (PtK2): Active
IC50 [2]: 180 nM
IC50 (L929): 40 nM
IC50 (NHDF): 40 nM

SMILES: COc1ccc(-c2ncn(C)c2-c2cc(I)c(OC)c(I)c2)cc1F
IC50 [1]: 3 nM
Activity (PtK2): Active
IC50 [2]: 330 nM
inhibition (Tubulin (Sus scrofa)): Active
IC50 (L929): 18 nM
MIC (HUVEC): 0.08 µM (≈ 0.0451 µg/mL)
IC50 (PC-3): 3 nM
IC50 (NHDF): 3300 nM

SMILES: COc1ccc(-c2c(-c3cc(OC)c(OC)c(OC)c3)ncn2C)cc1N
IC50 [1]: 70 nM
Activity (PtK2): Active
IC50 [2]: 450 nM
inhibition (Tubulin (Sus scrofa)): Active
IC50 (L929): 220 nM
MIC (HUVEC): 0.29 µM (≈ 0.107 µg/mL)
IC50 (PC-3): 90 nM
IC50 (NHDF): 140 nM

SMILES: COc1ccc(-c2ncn(C)c2-c2cc(Cl)c(OC)c(OC)c2)cc1F
IC50 [1]: 190 nM
Activity (PtK2): Active
IC50 [2]: 480 nM
IC50 (L929): 220 nM
IC50 (NHDF): 240 nM

SMILES: COc1ccc(-c2ncn(C)c2-c2cc(Cl)c(OC)c(Cl)c2)cc1F
IC50 [1]: 1150 nM
Activity (PtK2): Active
IC50 [2]: 4300 nM
IC50 (L929): 2400 nM
IC50 (NHDF): 7180 nM

SMILES: COc1ccc(-c2c(-c3cc(Cl)c(OC)c(OC)c3)ncn2C)cc1N
IC50 [1]: 16 nM
Activity (PtK2): Active
IC50 [2]: 70 nM
IC50 (L929): 135 nM
MIC (HUVEC): 0.07 µM (≈ 0.0262 µg/mL)
IC50 (NHDF): 970 nM

Further lines, with some results ahead:

inhibition (Tubulin (Sus scrofa)): inactive
IC50 (PC-3): 16000 nM
SMILES: COc1ccc(-c2ncn(C)c2-c2cc(F)c(OC)c(F)c2)cc1F
IC50 [1]: 21000 nM
Activity (PtK2): inactive
IC50 [2]: 23000 nM
IC50 (L929): 31000 nM
MIC (HUVEC): 27 µM (≈ 9.4 µg/mL)
IC50 (NHDF): 52000 nM

inhibition (Tubulin (Sus scrofa)): Active
IC50 (PC-3): 10 nM
SMILES: COc1ccc(-c2ncn(C)c2-c2cc(Br)c(OC)c(Br)c2)cc1F
IC50 [1]: 14 nM
Activity (PtK2): Active
IC50 [2]: 1200 nM
IC50 (L929): 4400 nM
MIC (HUVEC): 0.27 µM (≈ 0.127 µg/mL)
IC50 (NHDF): 400 nM

IC50 (PC-3): 1800 nM
SMILES: COc1ccc(-c2ncn(C)c2-c2cc(F)c(OC)c(OC)c2)cc1F
IC50 [1]: 2000 nM
Activity (PtK2): Active
IC50 [2]: 5000 nM
IC50 (L929): 10000 nM
MIC (HUVEC): 10 µM (≈ 3.6 µg/mL)
IC50 (NHDF): 7600 nM

inhibition (Tubulin (Sus scrofa)): Active
IC50 (PC-3): 70 nM
SMILES: COc1ccc(-c2ncn(C)c2-c2cc(Br)c(OC)c(OC)c2)cc1F
IC50 [1]: 5 nM
Activity (PtK2): Active
IC50 [2]: 440 nM
IC50 (L929): 25 nM
MIC (HUVEC): 0.11 µM (≈ 0.0463 µg/mL)
IC50 (NHDF): 175 nM
